Measurements: patent US12606834B2 (priority 2015, dated 2026)

System: E. coli R182
Format: cell-based, Escherichia coli
Text: We compared the combination of P1 CRISPR phage (targeting ftsA) and ciprofloxacin to the use of P1 CRISPR phage alone for killing E. coli R182, a ciprofloxacin-resistant strain (FIG. 10A). Ciprofloxacin (Cip) dose was the highest therapeutically relevant concentration (4 micrograms per milliliter) to which the R182 strain is known to be resistant. E. coli were infected with CRISPR phage targeting the E. coli ftsA gene at a range of multiplicities of infection (MOI).
In addition, the combination of P1 CRISPR phage (targeting ftsA) and imipenem, a standard of care antibiotic in E. coli infections, was compared with P1 CRISPR phage alone for killing E. coli R182, a ciprofloxacin-resistant strain (FIG. 10B). […] The E. coli cells were infected with CRISPR phage at a range of MOI.
Finally, we compared the loss of viable E. coli R182 cells following exposure to imipinem, P1 CRISPR phage targeting ftsA, or a combination of both (FIG. 10C). For relevant conditions (n=3 for each condition), imipenem was held at a constant dose (LD50 for E. coli R182) and CRISPR phage was held to a MOI of 2.

Q: With `O=C(O)c1cn(C2CC2)c2cc(N3CCNCC3)c(F)cc2c1=O` [ciprofloxacin] as the compound, how does the bacterial viability (ciprofloxacin alone, 4 micrograms per milliliter, FIG. 10A) read?
A: Its bacterial viability is “did not reduce bacterial viability”.

Q: For `C[C@@H](O)[C@H]1C(=O)N2C(C(=O)O)=C(SCCN=CN)C[C@H]12` [Imipenem, imipenem], which CFU reduction (constant dose (the LD50 for E. coli R182), FIG. 10B) is on record?
A: The CFU reduction was 0.3 log.
